According to ChEMBL document CHEMBL1697781, “Assessment of the health effects of chemicals in humans: II. Construction of an adverse effects database for QSAR modeling” (Curr Drug Discov Technol, 2004):

Key:
Conditions in all cases: human
[1] = test system: Hepatotoxicity; assay: FDA HLAED, serum glutamic oxaloacetic transaminase (SGOT) increase
[2] = test system: Hepatotoxicity; assay: FDA HLAED, alkaline phosphatase increase
[3] = test system: Hepatotoxicity; assay: FDA HLAED, gamma-glutamyl transferase (GGT) increase
[4] = test system: Hepatotoxicity; assay: FDA HLAED, serum glutamic pyruvic transaminase (SGPT) increase
[5] = test system: Hepatotoxicity; assay: FDA HLAED, liver enzyme composite activity
[6] = test system: Hepatotoxicity; assay: FDA HLAED, lactate dehydrogenase (LDH) increase
For GGT Increase - Index Value in this document: reference of the scale not given here.
For LDH Increase - Index Value in this document: reference of the scale not given here.

C[C@]12CC[C@@H]3c4ccc(OC(=O)Cc5ccc(N(CCCl)CCCl)cc5)cc4CC[C@H]3[C@@H]1CC[C@@H]2OC(=O)Cc1ccc(N(CCCl)CCCl)cc1 [ESTRADIOL MUSTARD]
Inactive: SGOT Increase - Activity Score [1] | Alkaline Phosphatase Increase - Activity Score [2] | GGT Increase - Activity Score [3] | SGPT Increase - Activity Score [4] | Composite Activity - Score [5] | LDH Increase - Activity Score [6]
0: SGOT Increase - Index Value [1] | Alkaline Phosphatase Increase - Index Value [2] | GGT Increase - Index Value [3] | SGPT Increase - Index Value [4] | Composite Activity - Active [5] | Composite Activity - Marginal [5] | LDH Increase - Index Value [6]
< 4: SGOT Increase - Number of Reports [1] | Alkaline Phosphatase Increase - Number of Reports [2] | GGT Increase - Number of Reports [3] | SGPT Increase - Number of Reports [4] | LDH Increase - Number of Reports [6]

CC(C)NCC(O)COc1cccc2[nH]ccc12 (stereo unspecified) [PINDOLOL]
2.6: SGOT Increase - Index Value [1] | SGPT Increase - Index Value [4]
0: GGT Increase - Index Value [3] | Composite Activity - Active [5] | Composite Activity - Marginal [5]
0.7: LDH Increase - Index Value [6]
< 4: Alkaline Phosphatase Increase - Number of Reports [2] | GGT Increase - Number of Reports [3] | LDH Increase - Number of Reports [6]
Inactive: SGOT Increase - Activity Score [1] | Alkaline Phosphatase Increase - Activity Score [2] | GGT Increase - Activity Score [3] | SGPT Increase - Activity Score [4] | Composite Activity - Score [5] | LDH Increase - Activity Score [6]
1: Alkaline Phosphatase Increase - Index Value [2]
>= 4: SGOT Increase - Number of Reports [1] | SGPT Increase - Number of Reports [4]

COc1cccc2c1C(=O)c1c(O)c3c(c(O)c1C2=O)C[C@@](O)(C(C)=O)C[C@@H]3O[C@H]1C[C@H](N)[C@H](O)[C@H](C)O1 [DAUNORUBICIN]
< 4: SGOT Increase - Number of Reports [1] | Alkaline Phosphatase Increase - Number of Reports [2] | GGT Increase - Number of Reports [3] | SGPT Increase - Number of Reports [4] | LDH Increase - Number of Reports [6]
0: SGOT Increase - Index Value [1] | Alkaline Phosphatase Increase - Index Value [2] | GGT Increase - Index Value [3] | SGPT Increase - Index Value [4] | Composite Activity - Active [5] | Composite Activity - Marginal [5] | LDH Increase - Index Value [6]
Inactive: SGOT Increase - Activity Score [1] | Alkaline Phosphatase Increase - Activity Score [2] | GGT Increase - Activity Score [3] | SGPT Increase - Activity Score [4] | Composite Activity - Score [5] | LDH Increase - Activity Score [6]

COc1ccc(OC)c(C(O)CNC(=O)CN)c1 (stereo unspecified) [MIDODRINE]
< 4: SGOT Increase - Number of Reports [1] | Alkaline Phosphatase Increase - Number of Reports [2] | GGT Increase - Number of Reports [3] | SGPT Increase - Number of Reports [4] | LDH Increase - Number of Reports [6]
0: SGOT Increase - Index Value [1] | Alkaline Phosphatase Increase - Index Value [2] | GGT Increase - Index Value [3] | SGPT Increase - Index Value [4] | Composite Activity - Active [5] | Composite Activity - Marginal [5] | LDH Increase - Index Value [6]
Inactive: SGOT Increase - Activity Score [1] | Alkaline Phosphatase Increase - Activity Score [2] | GGT Increase - Activity Score [3] | SGPT Increase - Activity Score [4] | Composite Activity - Score [5] | LDH Increase - Activity Score [6]

CCC1=C(C)CN(C(=O)NCCc2ccc(S(=O)(=O)NC(=O)N[C@H]3CC[C@H](C)CC3)cc2)C1=O [GLIMEPIRIDE]
Inactive: SGOT Increase - Activity Score [1] | Alkaline Phosphatase Increase - Activity Score [2] | GGT Increase - Activity Score [3] | SGPT Increase - Activity Score [4] | Composite Activity - Score [5] | LDH Increase - Activity Score [6]
1.2: SGOT Increase - Index Value [1] | Alkaline Phosphatase Increase - Index Value [2] | GGT Increase - Index Value [3] | SGPT Increase - Index Value [4]
< 4: SGOT Increase - Number of Reports [1] | Alkaline Phosphatase Increase - Number of Reports [2] | GGT Increase - Number of Reports [3] | SGPT Increase - Number of Reports [4] | LDH Increase - Number of Reports [6]
0: Composite Activity - Active [5] | Composite Activity - Marginal [5] | LDH Increase - Index Value [6]

NCCNCCNCCN [TRIENTINE]
< 4: SGOT Increase - Number of Reports [1] | Alkaline Phosphatase Increase - Number of Reports [2] | GGT Increase - Number of Reports [3] | SGPT Increase - Number of Reports [4] | LDH Increase - Number of Reports [6]
69.4: SGOT Increase - Index Value [1] | SGPT Increase - Index Value [4]
0: Alkaline Phosphatase Increase - Index Value [2] | GGT Increase - Index Value [3] | Composite Activity - Active ([5]; Liver) | Composite Activity - Marginal ([5]; Liver) | LDH Increase - Index Value [6]
Inactive: SGOT Increase - Activity Score [1] | Alkaline Phosphatase Increase - Activity Score [2] | GGT Increase - Activity Score [3] | SGPT Increase - Activity Score [4] | Composite Activity - Score ([5]; Liver) | LDH Increase - Activity Score [6]

CCC1=C[C@@H]2CN(C1)Cc1c([nH]c3ccccc13)[C@@](C(=O)OC)(c1cc3c(cc1OC)N(C)[C@H]1[C@@](O)(C(=O)OC)[C@H](OC(C)=O)[C@]4(CC)C=CCN5CC[C@]31[C@@H]54)C2 [VINORELBINE]
>= 4: LDH Increase - Number of Reports [6]
< 4: SGOT Increase - Number of Reports [1] | Alkaline Phosphatase Increase - Number of Reports [2] | GGT Increase - Number of Reports [3] | SGPT Increase - Number of Reports [4]
Inactive: SGOT Increase - Activity Score [1] | Alkaline Phosphatase Increase - Activity Score [2] | GGT Increase - Activity Score [3] | SGPT Increase - Activity Score [4] | Composite Activity - Score [5]
0.9: SGOT Increase - Index Value [1] | GGT Increase - Index Value [3]
1.9: SGPT Increase - Index Value [4]
1: Composite Activity - Active [5]
Active: LDH Increase - Activity Score [6]
2.8: Alkaline Phosphatase Increase - Index Value [2]
4.7: LDH Increase - Index Value [6]
0: Composite Activity - Marginal [5]

CCn1cc(C(=O)O)c(=O)c2cc(F)c(N3CCNCC3)cc21 [NORFLOXACIN]
3: SGPT Increase - Index Value [4]
6.3: Alkaline Phosphatase Increase - Index Value [2]
< 4: GGT Increase - Number of Reports [3]
0: GGT Increase - Index Value [3]
2: Composite Activity - Active ([5]; Liver) | Composite Activity - Marginal ([5]; Liver)
Marginally Active: SGPT Increase - Activity Score [4] | LDH Increase - Activity Score [6]
5.6: SGOT Increase - Index Value [1]
Inactive: GGT Increase - Activity Score [3]
Active: SGOT Increase - Activity Score [1] | Alkaline Phosphatase Increase - Activity Score [2] | Composite Activity - Score ([5]; Liver)
>= 4: SGOT Increase - Number of Reports [1] | Alkaline Phosphatase Increase - Number of Reports [2] | SGPT Increase - Number of Reports [4] | LDH Increase - Number of Reports [6]
3.7: LDH Increase - Index Value [6]

CC(C)(C)NC(=O)[C@H]1CC[C@H]2[C@@H]3CC[C@H]4NC(=O)C=C[C@]4(C)[C@H]3CC[C@]12C [FINASTERIDE]
2.7: SGOT Increase - Index Value [1] | SGPT Increase - Index Value [4]
2.5: Alkaline Phosphatase Increase - Index Value [2]
Inactive: SGOT Increase - Activity Score [1] | Alkaline Phosphatase Increase - Activity Score [2] | GGT Increase - Activity Score [3] | SGPT Increase - Activity Score [4] | Composite Activity - Score [5] | LDH Increase - Activity Score [6]
1.1: LDH Increase - Index Value [6]
1: GGT Increase - Index Value [3]
0: Composite Activity - Active [5] | Composite Activity - Marginal [5]
>= 4: SGOT Increase - Number of Reports [1] | Alkaline Phosphatase Increase - Number of Reports [2] | GGT Increase - Number of Reports [3] | SGPT Increase - Number of Reports [4] | LDH Increase - Number of Reports [6]

O=[N+]([O-])O[C@@H]1CO[C@H]2[C@@H]1OC[C@@H]2O [ISOSORBIDE MONONITRATE]
Inactive: SGOT Increase - Activity Score [1] | Alkaline Phosphatase Increase - Activity Score [2] | GGT Increase - Activity Score [3] | SGPT Increase - Activity Score [4] | Composite Activity - Score [5] | LDH Increase - Activity Score [6]
0.2: SGOT Increase - Index Value [1] | LDH Increase - Index Value [6]
0: Alkaline Phosphatase Increase - Index Value [2] | GGT Increase - Index Value [3] | Composite Activity - Active [5] | Composite Activity - Marginal [5]
< 4: SGOT Increase - Number of Reports [1] | Alkaline Phosphatase Increase - Number of Reports [2] | GGT Increase - Number of Reports [3] | SGPT Increase - Number of Reports [4] | LDH Increase - Number of Reports [6]
0.5: SGPT Increase - Index Value [4]

CC1(C)O[C@@H]2C[C@H]3[C@@H]4C[C@H](F)C5=CC(=O)C=C[C@]5(C)[C@H]4[C@@H](O)C[C@]3(C)[C@]2(C(=O)CO)O1 [FLUNISOLIDE]
< 4: SGOT Increase - Number of Reports [1] | Alkaline Phosphatase Increase - Number of Reports [2] | GGT Increase - Number of Reports [3] | SGPT Increase - Number of Reports [4] | LDH Increase - Number of Reports [6]
0: SGOT Increase - Index Value [1] | Alkaline Phosphatase Increase - Index Value [2] | GGT Increase - Index Value [3] | SGPT Increase - Index Value [4] | Composite Activity - Active [5] | Composite Activity - Marginal [5] | LDH Increase - Index Value [6]
Inactive: SGOT Increase - Activity Score [1] | Alkaline Phosphatase Increase - Activity Score [2] | GGT Increase - Activity Score [3] | SGPT Increase - Activity Score [4] | Composite Activity - Score [5] | LDH Increase - Activity Score [6]

CCCCC(C)(O)C/C=C/[C@H]1[C@H](O)CC(=O)[C@@H]1CCCCCCC(=O)OC (stereo partly specified) [MISOPROSTOL]
Inactive: SGOT Increase - Activity Score [1] | Alkaline Phosphatase Increase - Activity Score [2] | GGT Increase - Activity Score [3] | SGPT Increase - Activity Score [4] | Composite Activity - Score [5] | LDH Increase - Activity Score [6]
0.5: GGT Increase - Index Value [3] | LDH Increase - Index Value [6]
0.2: SGPT Increase - Index Value [4]
0: Composite Activity - Active [5] | Composite Activity - Marginal [5]
>= 4: SGOT Increase - Number of Reports [1] | Alkaline Phosphatase Increase - Number of Reports [2]
< 4: GGT Increase - Number of Reports [3] | SGPT Increase - Number of Reports [4] | LDH Increase - Number of Reports [6]
0.8: SGOT Increase - Index Value [1] | Alkaline Phosphatase Increase - Index Value [2]
